Measurements taken from ChEMBL document CHEMBL5725865, “Neprilysin inhibitors” (2018).

Experiment: Enzyme NEP Inhibition Assay: The assays were performed in 384-well white opaque plates at 37° C. using the fluorogenic peptide substrates at a concentration of 10 μM in Assay Buffer (NEP: 50 mM HEPES, pH 7.5, 100 mM NaCl, 0.01% polyethylene glycol sorbitan monolaurate (Tween-20), 10 μM ZnSO4; ACE: 50 mM HEPES, pH 7.5, 100 mM NaCl, 0.01% Tween-20, 1 μM ZnSO4). The respective enzymes were used at …
Description: Enzyme NEP Inhibition Assay: The assays were performed in 384-well white opaque plates at 37° C. using the fluorogenic peptide substrates at a concentration of 10 μM in Assay Buffer (NEP: 50 mM HEPES, pH 7.5, 100 mM NaCl, 0.01% polyethylene glycol sorbitan monolaurate (Tween-20), 10 μM ZnSO4; ACE: 50 mM HEPES, pH 7.5, 100 mM NaCl, 0.01% Tween-20, 1 μM ZnSO4). […] Test compounds were added to the enzymes and incubated for 30 minute at 37° C. prior to initiating the reaction by the addition of substrate.

In the case of `O=C(O)C(=O)N[C@H](Cc1ccc(-c2ccccc2)cc1)CC(O)C(=O)O` (stereo partly specified), the Ki is reported as “in the range around 35.5 nM”.
